Consider three compounds from publication PMC6299481, “Deciphering the Evolution of Cephalosporin Resistance to Ceftolozane-Tazobactam in Pseudomonas aeruginosa” (mBio, 2018).

By MIC is commonly meant the least concentration at which growth counts as inhibited. As usually defined, the Km is the concentration of substrate that gives half-maximal velocity. As a reminder, the kcat is the number of substrate molecules converted per active site and unit of time at saturation. As a reminder, the Vmax is the rate approached at saturating substrate. In general, IC50 refers to the concentration that inhibits the measured activity by half.

Where two headings read alike, the source gives them in different places.

Assay [1] has as its system E. coli DH10B strains expressing PDC-3 variants. The assay is described as follows: MIC, MH agar dilution (CLSI), variant strains taken together. Type of assay: cell-based, Escherichia coli. The conditions noted are these: oxyimino cephalosporin paired with avibactam. As to the method: (§1) Variant genes were synthesized into the pBC SK (-) vector by Celtek Bioscience (Franklin, TN). Mueller-Hinton (MH) agar-dilution MIC measurements were performed against isogenic transformants producing PDC-3 and nine variants of PDC-3 in pBC SK (-) according to the Clinical and Laboratory Standards Institute (CLSI) guidelines as previously described ([39], [48]). Avibactam, LP-06, and S02030 were tested at a constant 4 µg/ml in combination with various concentrations of ceftazidime. Piperacillin-tazobactam was maintained at a ratio of 8 piperacillin to 1 tazobactam. Ceftolozane-tazobactam was maintained at a ratio of 2 ceftolozane to 1 tazobactam. The MICs are reported as the concentrations at which bacterial growth was no longer observed. All MIC measurements were performed at least three times.

Assay [2] addresses T1, PDC-3 β-lactamase (Pseudomonas aeruginosa, UniProt P24735, T105A).
T1 construct: produces the corresponding PDC-3 protein without its signal peptide; made in house; host or cells: E. coli Origami 2 DE3, pET24a (+) blaPDC-3
The assay is described as follows: Competitive inhibition assay with nitrocefin as reporter substrate (Ki app). The format is biochemical. As to the method:
For competitive inhibition assays used to determine Ki app, 150 μM nitrocefin was used as the reporter substrate with increasing concentrations of ceftazidime or ceftolozane. Initial velocities were plotted against concentrations of ceftazidime or ceftolozane. Ki app obs were determined by dividing the slope by the y intercept. Ki app was calculated by correcting Ki app obs for nitrocefin affinity and concentration (equation 3). (3) Ki app=Ki app obs/[1+([NCF]/Km NCF)

The subject of the next assay is P. aeruginosa 18SH. In words: MIC, MH agar dilution (CLSI). Type of assay: cell-based. The following applies: Pseudomonas aeruginosa, β-lactam alone, control strain expressing PDC-3. As to the method: as §1
Assay [3] concerns E. coli DH10B pBC SK blaPDC-3 E221A. The assay is described as follows: MIC, MH agar dilution (CLSI). Type of assay: cell-based. The conditions noted are these: Escherichia coli; β-lactam alone; E. coli DH10B pBC SK blaPDC-3 E221A (Table 2 prints E221). As to the method:
as §1
In general terms: Agar dilution tests growth on a series of plates holding different concentrations.

For another assay, the system named is E. coli DH10B pBC SK. In words: MIC, MH agar dilution (CLSI). Type of assay: cell-based. The following applies: Escherichia coli, DH10BPBCSK, β-lactam alone. As to the method: as §1
Assay [4] deals with E. coli DH10B pBC SK blaPDC-3 G216A. In words: MIC, MH agar dilution (CLSI). Type of assay: cell-based. The conditions noted are these: Escherichia coli; β-lactam alone; E. coli DH10B pBC SK blaPDC-3 G216A (Table 2 prints G216). As to the method: as §1
In assay [5] the test system is E. coli DH10B pBC SK blaPDC-3 Y223H. In words: MIC, MH agar dilution (CLSI). Type of assay: cell-based. The conditions noted are these: Escherichia coli, β-lactam alone. As to the method:
as §1

Assay [6] concerns E. coli DH10B pBC SK blaPDC-1. In words: MIC, MH agar dilution (CLSI). The format is cell-based. The conditions noted are these: Escherichia coli, β-lactam alone. As to the method:
as §1

The test system of assay [7] is E. coli DH10B pBC SK blaPDC-3 V213A. In words: MIC, MH agar dilution (CLSI). The format is cell-based. The following applies: Escherichia coli, β-lactam alone. As to the method: as §1
Assay [8] deals with E. coli DH10B pBC SK blaPDC-3 Y223A. The assay is described as follows: MIC, MH agar dilution (CLSI). The conditions noted are these: Escherichia coli, β-lactam alone. The format is cell-based. As to the method: as §1
The subject of the next assay is E. coli DH10B. In words: MIC, MH agar dilution (CLSI). Type of assay: cell-based. The conditions noted are these: Escherichia coli, β-lactam alone. As to the method: as §1
Assay [9] concerns E. coli DH10B pBC SK blaPDC-3 E221G. In words: MIC, MH agar dilution (CLSI). The format is cell-based. The conditions noted are these: Escherichia coli, β-lactam alone. As to the method:
as §1

The next assay deals with P. aeruginosa PAO1. In words: MIC, MH agar dilution (CLSI). Type of assay: cell-based. The following applies: Pseudomonas aeruginosa; β-lactam alone; P. aeruginosa PAO1, control strain expressing PDC-1. As to the method: as §1
The test system of assay [10] is E. coli DH10B pBC SK blaPDC-3. In words: MIC, MH agar dilution (CLSI). The format is cell-based. The conditions noted are these: Escherichia coli, read-out: MIC value, β-lactam alone; E. coli DH10B pBC SK blaPDC-3. As to the method:
as §1

The test system of assay [11] is E. coli DH10B pBC SK blaPDC-3 G216R. The assay is described as follows: MIC, MH agar dilution (CLSI). Type of assay: cell-based. The conditions noted are these: Escherichia coli, β-lactam alone. As to the method:
as §1

Assay [12] deals with E. coli DH10B pBC SK blaPDC-3 V213G. The assay is described as follows: MIC, MH agar dilution (CLSI). The following applies: Escherichia coli, β-lactam alone. Type of assay: cell-based. As to the method: as §1
The target in assay [13] is T1, PDC-3 β-lactamase. The conditions noted are these: cited from earlier work; for Km: PDC-3, previously reported value; for kcat: PDC-3, reported value.
Assay [14] has as its system E. coli DH10B pBC SK blaPDC-3 E221K. The assay is described as follows: MIC, MH agar dilution (CLSI). Type of assay: cell-based, Escherichia coli. As to the method: as §1
The target of assay [15] is T2, E221K variant of PDC-3 β-lactamase (Pseudomonas aeruginosa, UniProt P24735, E247K/T105A).
T2 construct: produces the corresponding PDC-3 protein without its signal peptide; made in house; host or cells: E. coli Origami 2 DE3, pET24a (+) blaPDC-3-E221K
The assay is described as follows: Steady-state hydrolysis kinetics. The format is biochemical. As to the method: (§2) Steady-state kinetic and inhibitor parameters were determined by using an Agilent 8453 diode array spectrophotometer at room temperature as previously described ([20], [43], [49]). Each assay was performed in 10 mM phosphate-buffered saline (PBS) at pH 7.4 at room temperature (RT = ∼25°C) in a quartz cuvette with a 1-cm path length. Measurements were obtained using ceftolozane and ceftazidime. The kinetic parameters, Vmax and Km, were obtained with a nonlinear least-squares fit of the data (Henri Michaelis-Menten, equation 1) using Origin 7.5VR (OriginLab, Northampton, MA).(1) v=Vmax [S]/Km+[S]

The target in assay [16] is T2, E221K variant of PDC-3 β-lactamase. The assay is described as follows: Thermal denaturation by circular dichroism. Type of assay: binding. The conditions noted are these: 10 μM E221K with 200 μM inhibitor; CD, 20 to 80°C. As to the method: (§3) Circular dichroism (CD) experiments were carried out in a Jasco (Easton, MD) J-815 spectrometer with a Peltier effect temperature controller. Quartz cells with a 0.1-cm path length were used for all experiments.
(§4) PDC-3 enzyme and the E221K variant (10 μM) with or without S02030 or LP-06 (200 μM) were monitored for thermal denaturation by CD at λ215 and λ221 between 20 and 80°C with a heating rate of 2°C/min. Two-state behavior was indicated by identical curves at each wavelength. Raw equilibrium denaturation data were normalized to the fraction of denatured protein (fU). With the assumption of a reversible two-state transition (N ↔ U), equilibrium constants (Keq) at any given temperature were calculated, as previously described ([32]), using equation 4 (4) Keq=fU/(1−fU)
(§5) The melting temperature Tm was determined at the midpoint of equilibrium folding (T = Tm) when ΔG = 0. (5) ln Keq=1/T (−ΔH/R)+ΔS/R
(§6) The free energy of unfolding was determined as previously described using the equation ΔΔGu = ΔTmΔSu^PDC-3 (Schellman), where ΔSu^PDC-3 = 0.326 ± 0.02 Kcal mol^−1 K^−1.
A general note: Circular dichroism is widely used to follow secondary structure.

Assay [17] concerns the target T1, PDC-3 β-lactamase. In words: Thermal denaturation by circular dichroism. The format is binding. The following applies: 10 μM PDC-3 with 200 μM inhibitor; CD, 20 to 80°C. As to the method: as §3, §4, §5, §6
Assay [18] concerns the target T2, E221K variant of PDC-3 β-lactamase. In words: BATSI inhibition kinetics (IC50), nitrocefin reporter. Type of assay: biochemical. The following applies: E221K (20 nM); 5-min preincubation; 100 μM nitrocefin reporter substrate. As to the method:
(§7) Because of the time-dependent inhibition observed previously with some of the chiral boronates ([43]), the BATSIs were preincubated with enzyme for 5 min in phosphate-buffered saline before initiation of the reaction with the addition of substrate. The initial velocity (0 to 10 s) was measured in the presence of a constant concentration of enzyme (1.5 nM PDC-3 and 20 nM E221K) and increasing concentrations of the inhibitors against the fixed concentration (100 μM) of the indicator substrate, nitrocefin. The IC50 is the concentration of inhibitor that reduces the velocity by 50%. IC50 values were determined by fitting the initial velocity (v0) measurements to equation 2.(2) v0= Vmax[S]/Km[1+ I/IC50]+[S]

The target of assay [19] is T1, PDC-3 β-lactamase. The assay is described as above. The format is biochemical. The conditions noted are these: PDC-3 (1.5 nM); 5-min preincubation; 100 μM nitrocefin reporter substrate. As to the method:
as §7

The target in assay [20] is T1, PDC-3 β-lactamase. The assay is described as follows: Steady-state hydrolysis kinetics. The format is biochemical. The conditions noted are these: reporter substrate with PDC-3. As to the method:
as §2

The mark [21] stands for this setting: substrate hydrolysis by E221K, 10 mM PBS pH 7.4, room temperature.

As to `CC(C)(O/N=C(\C(=O)N[C@@H]1C(=O)N2C(C(=O)[O-])=C(C[n+]3ccccc3)CS[C@H]12)c1csc(N)n1)C(=O)O` [Ceftazidime], in assay [1], the “MICs when paired with avibactam” value is at most 1 mg/L. The same compound gave a Ki on PDC-3 β-lactamase [2] (150 μM nitrocefin reporter substrate) of 22000 nM. At PDC-3 β-lactamase [2] (ceftolozane Ki app higher than ceftazidime Ki app), the “fold difference in Ki app between ceftolozane and ceftazidime” value is given as around 60 fold. Also, the MIC in the assay on P. aeruginosa 18SH worked out at 64 µg/mL; in assay [3], 8 µg/mL; with E. coli DH10B pBC SK it was 0.25 µg/mL; in assay [4], 16 µg/mL; in assay [5], 16 µg/mL; in [6], 2 µg/mL. The MIC was 32 µg/mL in assay [7]; 32 µg/mL in [8]; 0.25 µg/mL in the assay with E. coli DH10B; 32 µg/mL in assay [9]; 1 µg/mL in the assay on P. aeruginosa PAO1; 2 µg/mL in assay [10]. Besides, the MIC in assay [11] amounted to 32 µg/mL; in [12], 16 µg/mL; in assay [14] (Escherichia coli, read-out: MIC value) it was 64 µg/mL. Besides, the Km is 51.7 ± 2.1 µM on PDC-3 β-lactamase [13] (ref 20), 35 µM on PDC-3 β-lactamase [13] (ref 28) and 174 ± 20 µM in [15] (setting [21]). The values for the kcat (on PDC-3 β-lactamase [13] (ref 4); on PDC-3 β-lactamase [13] (ref 28); in assay [15] (setting [21])) were 0.002 s⁻¹, 0.02 s⁻¹ and 9 ± 1 s⁻¹, respectively. For the same compound, in assay [14] (E221K variant strain versus PDC-3 strain, E. coli DH10B), the “fold increase in MIC relative to the wild-type strain” value is 32 fold. Also, in [15] (setting [21]), the Vmax is reported as 0.9 ± 0.1 µM/s.
`O=C(Cc1cccs1)N[C@@H](Cn1cc(C(=O)O)nn1)B(O)O` [S02030]: the results for the “increase in thermal stability (Tm) on inhibitor binding” value (in [16]; on PDC-3 β-lactamase [17]) were 3 to 4 °C and 6 °C, respectively. For the same compound, the results for the IC50 (in assay [18]; on PDC-3 β-lactamase [19]) were 769 ± 30 nM and 62 ± 2 nM, respectively. The “MICs of ceftolozane and ceftazidime combined with BATSI” value in assay [14] (strain expressing E221K, highest MICs among variant strains) lay in the range of 8 to 16 mg/L.
Take `O=C(Cc1cccs1)N[C@@H]1C(=O)N2C(C(=O)O)=C(/C=C/c3ccc([N+](=O)[O-])cc3[N+](=O)[O-])CS[C@H]12` [nitrocefin]: the Km in [15] (reporter substrate with E221K) amounted to 17 ± 3 µM; at PDC-3 β-lactamase [20] it was 20 ± 2 µM.
